This note sets out measurements from patent publication EP4501917A1, “3,4-DIHYDROQUINOXALINE-2-CARBOXIMIDE DERIVATIVE COMPOUND AND PHARMACEUTICAL COMPOSITION COMPRISING SAME FOR PREVENTING OR TREATING CANCER DISEASE” (Daegu-Gyeongbuk Medical Innovation Foundation, priority 2022, dated 2023).

One test concerns the target T1, HDAC7 (Homo sapiens, UniProt Q8WUI4).
T1 construct: purchased BPS bioscience
T1 sequence (Q8WUI4 1-952): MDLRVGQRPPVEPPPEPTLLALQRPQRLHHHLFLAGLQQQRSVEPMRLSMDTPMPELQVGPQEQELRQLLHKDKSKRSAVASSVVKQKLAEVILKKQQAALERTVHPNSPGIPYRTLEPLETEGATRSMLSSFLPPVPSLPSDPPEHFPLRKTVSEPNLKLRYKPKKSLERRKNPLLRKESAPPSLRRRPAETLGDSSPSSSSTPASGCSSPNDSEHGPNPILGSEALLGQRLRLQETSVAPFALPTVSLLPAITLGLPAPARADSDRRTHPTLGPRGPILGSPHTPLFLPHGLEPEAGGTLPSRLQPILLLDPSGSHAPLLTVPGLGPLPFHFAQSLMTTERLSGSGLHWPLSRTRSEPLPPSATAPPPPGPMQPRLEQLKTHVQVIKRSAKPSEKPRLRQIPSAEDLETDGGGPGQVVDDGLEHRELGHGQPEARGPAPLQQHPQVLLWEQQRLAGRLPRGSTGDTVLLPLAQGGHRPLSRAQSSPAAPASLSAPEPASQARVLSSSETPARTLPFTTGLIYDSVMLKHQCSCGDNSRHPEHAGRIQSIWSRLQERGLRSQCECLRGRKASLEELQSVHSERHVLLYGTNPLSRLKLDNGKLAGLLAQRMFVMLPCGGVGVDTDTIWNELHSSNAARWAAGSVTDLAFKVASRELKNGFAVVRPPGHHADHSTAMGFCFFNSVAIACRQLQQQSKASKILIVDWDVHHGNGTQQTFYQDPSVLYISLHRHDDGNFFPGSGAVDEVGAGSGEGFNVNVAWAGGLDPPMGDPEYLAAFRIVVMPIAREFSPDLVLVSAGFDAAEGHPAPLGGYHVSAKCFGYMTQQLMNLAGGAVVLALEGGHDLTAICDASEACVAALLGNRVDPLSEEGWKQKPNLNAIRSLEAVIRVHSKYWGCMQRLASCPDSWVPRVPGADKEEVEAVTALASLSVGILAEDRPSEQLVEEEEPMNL
As to the kind of experiment: Selective HDAC inhibition, HDAC Fluorogenic assay kit. The format is biochemical. The settings on record: final concentration 10 µM; HDAC substrate 2A 200 µM; positive control (1% DMSO) set to 100; read-out: HDAC7 enzyme activity (%).

For test [1], the system named is PC-3 prostate cancer cells. The experiment in a line: Prostate cancer cell growth inhibition, CCK-8 assay. Type of test: cell-based, human. The settings on record: PC-3 cells, result in words. The protocol: PC-3, a human-derived prostate cancer cell line, was cultured with RPMI1640 (10% fetal bovine serum, 1% Penicillin Streptomycin) culture medium at 37°C, 5% CO2 condition. All cells in the experiment were subcultured when they reached a confluency of approximately 80% to 90%, and only cells that had not passed 20 passages were used.
After culturing, 10 µL CCK-8 reagent was added and the absorbance was measured after 1 hour. The absorbance was measured at 450 nm using a microplate reader [BMG Labtech (Offenburg, Germany)].
Background: Formazan colour is commonly taken as a measure of viable cells.

The test system of the next test is PC-3 cell lines. The experiment in a line: Prostate cancer model, PC-3 cell lines subcutaneously transplanted, tumor volume and weight. The settings on record: result in words. Type of test: in vivo, nude mice. The protocol:
A prostate cancer model was established by subcutaneously transplanting PC-3 cell lines into nude mice, and the mice were divided into two groups (group 1: vehicle administration group (10% DSMO, 30% PEG400, 60% DW), group 2: 50 mg/kg Example 27 compound administration group). The drug was administered orally once a day for 12 times. To evaluate the therapeutic efficacy, tumors were […] before drug administration and on days 3, 6, 8, 10, 12, and 14 after drug administration, and tumor volumes were measured. Tumor volume (mm^3) was calculated as follows (tumor volume (mm^3) = (A X B^2)/2, where A = tumor long axis, B = tumor short axis), and the results are shown in FIG. 2.
Meanwhile, on day 12 of drug administration, the tumor was removed and its weight was measured, the results are shown in FIG. 3, and a photograph of the removed tumor was taken and shown in FIG. 4.

For the next test, the target named is HDAC4 (Homo sapiens, UniProt P56524). The experiment in a line: Selective HDAC inhibition, HDAC Fluorogenic assay kit. Conditions: read-out: HDAC4 enzyme activity (%).
Sequence of HDAC4 (P56524 whole entry): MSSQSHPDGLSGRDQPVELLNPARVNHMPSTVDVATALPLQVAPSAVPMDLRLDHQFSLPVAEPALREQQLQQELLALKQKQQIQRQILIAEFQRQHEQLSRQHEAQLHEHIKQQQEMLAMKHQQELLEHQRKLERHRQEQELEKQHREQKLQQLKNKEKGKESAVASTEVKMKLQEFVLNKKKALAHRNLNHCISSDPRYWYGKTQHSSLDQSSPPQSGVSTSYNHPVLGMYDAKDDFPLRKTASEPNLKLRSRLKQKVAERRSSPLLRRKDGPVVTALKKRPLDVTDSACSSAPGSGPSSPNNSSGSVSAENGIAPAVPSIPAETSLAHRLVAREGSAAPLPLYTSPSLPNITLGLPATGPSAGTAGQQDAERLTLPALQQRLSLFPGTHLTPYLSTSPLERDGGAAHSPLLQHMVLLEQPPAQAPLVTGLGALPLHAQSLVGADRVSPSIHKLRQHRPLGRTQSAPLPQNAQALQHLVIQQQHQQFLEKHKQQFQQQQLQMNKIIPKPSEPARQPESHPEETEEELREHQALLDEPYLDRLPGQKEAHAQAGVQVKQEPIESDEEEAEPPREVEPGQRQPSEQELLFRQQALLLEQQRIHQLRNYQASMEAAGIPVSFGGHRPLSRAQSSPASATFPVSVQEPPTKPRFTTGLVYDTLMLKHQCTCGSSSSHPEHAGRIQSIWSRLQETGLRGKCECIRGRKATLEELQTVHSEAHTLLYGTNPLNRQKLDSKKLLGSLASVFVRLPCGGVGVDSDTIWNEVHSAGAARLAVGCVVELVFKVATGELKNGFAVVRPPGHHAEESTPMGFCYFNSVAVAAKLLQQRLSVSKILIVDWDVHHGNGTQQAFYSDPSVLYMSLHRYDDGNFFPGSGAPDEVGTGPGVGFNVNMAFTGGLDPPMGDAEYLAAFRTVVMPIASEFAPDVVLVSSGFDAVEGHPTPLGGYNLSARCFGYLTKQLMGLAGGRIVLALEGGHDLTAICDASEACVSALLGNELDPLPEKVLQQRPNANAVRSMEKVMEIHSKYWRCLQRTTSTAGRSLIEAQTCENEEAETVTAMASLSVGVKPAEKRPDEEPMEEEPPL

Description for HDAC4: (§1) For analysis, HDAC substrate 3 was diluted in buffer to a concentration of 200 µM and used in HDAC 1, 2, 3, 6, and 10 assays, HDAC substrate 2A was diluted in buffer to a concentration of 200 µM and used in HDAC 4, 7, 9, and 11 assays, HDAC substrate 2A was diluted in buffer to a concentration of 20 µM and used in HDAC 8 assays. For the HDAC 11 assay, a dedicated buffer included in the kit was used separately, and the same buffer was used for the remaining assays. The compound of the Example was diluted to 1 mM (1% DMSO concentration) using DMSO to obtain a final concentration of 10 µM, and prepared by diluting 1/10 with assay buffer. In a 96-well black round-bottom plate, 5 µL of the diluted compound of the Example, 5 µL of the diluted HDAC substrate, 5 µL of BSA (1 mg/ml), 5 µL of the HDAC enzyme diluted to the appropriate concentration, and 30 µL of assay buffer were added, and the enzyme reaction was performed at 37°C for 30 minutes. […] Afterwards, 50 µL of 2X HDAC developer was added to each well. After reacting for 15 minutes at room temperature, the fluorescence values at excitation wavelengths of 350-380 nm and emission wavelengths of 440-460 nm were measured using a microplate reader (Synergy Neo).
Description for HDAC7: as §1

As for `Cc1cc2nc(C(=O)NCCc3c[nH]c4ccc(O)cc34)c(=O)n(C[C@H](O)[C@H](O)[C@H](O)CO)c2cc1C` [Example 27, N-(2-(5-hydroxy-1H-indol-3-yl)ethyl)-6,7-dimethyl-3-oxo-4-((2S,3S,4R)-2,3,4,5-tetrahydroxypentyl)-3,4-dihydroquinoxaline-2-carboxamide], the results for the remaining activity at 10 µM on HDAC7 and on HDAC4 were 91.2% and 98.2%, respectively. Further, the “cancer cell viability inhibition rate” value in test [1] (compared with PCI-34051, FIG. 1) is listed as “superior to that of PCI-34051”. Further, in test [1] (various concentrations, 24 hours and 48 hours, FIG. 1), the cell viability result was “effectively reduced the viability of prostate cancer cells in a concentration- and time-dependent manner”. Moreover, the tumor volume result with PC-3 cell lines (50 mg/kg orally once a day for 12 times, up to day 14, *p<0.05 compared with vehicle, FIG. 2) was “significantly reduced tumor volume growth rate compared to group 1”. For the same compound, the tumor weight result with PC-3 cell lines (50 mg/kg orally once a day, tumor removed on day 12, ***p<0.0005 compared with vehicle, FIG. 3) is given as “vehicle administration group (group 1) had a significantly higher tumor weight”.
